Laboratory results taken from patent US20040024024A1, “Aromatic sulfone hydroxamates and their use as protease inhibitors” (priority 2001, published 2004).
“And” between values parts separate entries of the source, which are not always exact repeats. Equal entries are not always repeated. Structures can show the parent of a compound that is named as a salt.

What was measured:
Type in all cases: biochemical
Human recombinant MMP-13 = target: T1, Human recombinant MMP-13 (Homo sapiens, UniProt P45452); assay: In vitro MMP inhibition, IC50 determination (fluorogenic substrate I)
T1 construct: made in house; host or cells: baculovirus / insect cells
Outline: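 Fluorescence at 415 nm (excitation 328 nm) reports Gly-Leu cleavage of 4 μM quenched methoxycoumarin peptide substrate I. Human recombinant MMP-13, activated by trypsin or APMA, was incubated at room temperature with varied inhibitor concentrations in pH 7.5 Tris/NaCl/CaCl2 buffer; IC50 derived from reduced fluorescence.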

Human recombinant MMP-9 = target: T2, Human recombinant MMP-9 (Homo sapiens, UniProt P14780); assay: In vitro MMP inhibition, Ki determination (fluorogenic substrate II)
T2 construct: made in house; host or cells: MMP-9-transfected HT1080 cells (spent media)
Method: Several hydroxamates and salts thereof were analyzed in in vitro assays to determine their ability to inhibit the MMP cleavage of peptide substrates. Inhibition (Ki) and IC50 constants were calculated from the assayed hydroxamate-MMP interactions.
Human recombinant MMP-1, MMP-2, MMP-9, MMP-13, and MMP-14 were used in this assay. All enzymes were prepared in Assignee's laboratories following usual laboratory procedures. Protocols for the preparation and use of these enzymes are available in the scientific literature. See, e.g., Enzyme Nomenclature (Academic Press, San Diego, Calif., 1992) (and the citations therein). See also, Frije et al., J. Biol. Chem., 26(24), 16766-73 (1994).
The MMP-9 proenzyme was purified by gelatin Sepharose chromatography from spent media of MMP-9-transfected HT1080 cells provided by Dr. Howard Welgus of Washington University (St. Louis, Mo.).
All MMPs were activated using 4-aminophenylmercuric acetate (“APMA”, Sigma Chemical, St. Louis, Mo.) or trypsin. MMP-9 also was activated using human recombinant MMP-3 (purified in Assignee's laboratory following standard cloning and purification techniques).
Two fluorogenic, methoxycoumarin-containing polypeptide substrates were used in the MMP inhibition assays:
MCA-ArgProLeuGlyLeuDpaAlaArgGluArgNH2 (II)
Here, “Dpa” is 3-(2,4-dinitrophenyl)-L-2,3-diaminopropionyl group, and “MCA” is 7-methoxycoumarin-4-yl acetyl. Substrate (I) was purchased from Baychem (Redwood City, Calif.), and substrate II was prepared Assignee's laboratory. Substrate I was used in the IC50 determination assays, while substrate II was used in the Ki determination assays. In the absence of MMP inhibitory activity, either substrate is cleaved at the Gly-Leu peptide bond. This cleavage separates the highly fluorogenic peptide from the 2,4-dinitrophenyl quencher, thus resulting in increase of fluorescent intensity.
The stock solutions of the assayed hydroxamates (or salts thereof) were prepared in 1% dimethyl sulfoxide (DMSO). These stock solutions were diluted in Buffer A (100 mM Tris-HCl, 100 mM NaCl, 10 mM CaCl2, 0.05% polyoxyethylene 23 lauryl ether, pH 7.5) to obtain solutions with different hydroxamate concentrations, i.e., assay solutions with different concentrations of the assayed MMP inhibitory compound. The experiment controls contained the same amount of Buffer A/DMSO as the assayed sample, but contained no hydroxamate (or salt thereof).
The assays from which the Ki determinations were made were performed as follows. The assayed hydroxamate samples were incubated in separate wells of untreated white polystyrene plates (Nunc Nalgene International, Rochester, N.Y.), and analyzed on a Tecan SpectraFlour Plus plate reader. The excitation wavelength was 330 nm, and the emission wavelength—420 nm. All samples (assayed hydroxamates and controls) were incubated in separate plate wells at room temperature for 1 hr in the presence of 4 μM of MMP substrate (II). In the absence of MMP inhibitory activity, substrate II was cleaved at the Gly-Leu bond resulting in an increase of relative fluorescence. Inhibition was observed as a reduced rate of this increase in relative fluorescence. The various hydroxamates were analyzed using a single low enzyme concentration with a single substrate concentration fixed at or below the Km. This protocol is a modification of method by Knight et al., FEBS Lett., 296(3), 263-266 (1992). Apparent inhibitory constants were determined by non-linear regression of reaction velocity as a function of inhibitor and enzyme concentration using Morrison's equation, as described by Kuzmic, Anal. Biochem. 286, 45-50 (2000). Modifications were made in the non-linear regression method to allow a common control reaction rate and effective enzyme concentration to be shared between all dose-response relationships on a given assay plate. […]

Human recombinant MMP-14 = target: T3, Human recombinant MMP-14 (Homo sapiens, UniProt P50281); assay: In vitro MMP inhibition, IC50 determination (fluorogenic substrate I)
T3 construct: The catalytic domain enzyme was expressed in E. coli inclusion bodies, solubilized in urea; made in house
Outline: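 Catalytic-domain MMP-14, expressed in E. coli and refolded, activated with APMA or trypsin; compounds incubated at room temperature with 4 μM fluorogenic substrate I (MCA-PLGL-Dpa-AR-NH2) in Tris/NaCl/CaCl2 buffer, pH 7.5. Fluorescence at ex 328/em 415 nm; IC50 from loss of fluorescence versus inhibitor concentration.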

[1] = substrate (I) 4 μM, room temperature, values not in parenthesis
[2] = substrate (II) 4 μM, 1 hr room temperature, apparent Ki, values in parenthesis

T2 sequence (P14780 107-707 limits assumed): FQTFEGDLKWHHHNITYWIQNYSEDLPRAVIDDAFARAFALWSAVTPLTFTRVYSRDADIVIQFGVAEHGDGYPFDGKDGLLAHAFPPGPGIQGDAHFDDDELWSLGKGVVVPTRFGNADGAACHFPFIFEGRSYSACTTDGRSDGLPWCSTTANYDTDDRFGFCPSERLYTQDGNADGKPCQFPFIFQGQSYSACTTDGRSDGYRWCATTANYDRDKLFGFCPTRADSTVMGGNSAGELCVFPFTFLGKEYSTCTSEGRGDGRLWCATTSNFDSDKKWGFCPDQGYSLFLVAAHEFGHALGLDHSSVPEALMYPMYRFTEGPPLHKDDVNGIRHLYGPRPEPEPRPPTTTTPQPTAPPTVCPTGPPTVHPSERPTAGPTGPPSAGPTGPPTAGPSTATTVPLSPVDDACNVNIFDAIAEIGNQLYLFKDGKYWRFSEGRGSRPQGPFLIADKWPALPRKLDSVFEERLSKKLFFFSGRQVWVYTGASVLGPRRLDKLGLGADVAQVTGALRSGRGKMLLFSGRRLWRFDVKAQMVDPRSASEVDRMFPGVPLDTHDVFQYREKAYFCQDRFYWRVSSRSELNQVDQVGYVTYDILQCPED

IC50 (Human recombinant MMP-13; value outside parenthesis) [nM]	Ki (Human recombinant MMP-9; value in parenthesis) [nM]	IC50 (Human recombinant MMP-13; value outside parentheses) [nM]	Ki (Human recombinant MMP-9; value in parentheses) [nM]	Compound	also measured
28.3	7970	–	–	O=C(NO)C1(S(=O)(=O)c2ccc(OCCCc3cccc(-c4ccc(OC(F)(F)F)cc4)c3)cc2)CCOCC1 [Example 147]	–
–	–	118	5810	O=C(NO)C1(S(=O)(=O)c2ccc(OCCCc3cccc(-c4csc5ccccc45)c3)cc2)CCOCC1 [Example 631]	–
0.6	125	–	–	O=C(NO)C1(S(=O)(=O)c2ccc(OCCCc3cccc(-c4cccnc4)c3)cc2)CCOCC1 [Example 150]	IC50 (Human recombinant MMP-14; value outside parenthesis): 6630 nM
20	2720	–	–	Cc1ccccc1-c1cccc(CCCOc2ccc(S(=O)(=O)C3(C(=O)NO)CCOCC3)cc2)c1 [Example 164]	–
–	–	78.6	1300	O=C(NO)C1(S(=O)(=O)c2ccc(OCCCc3cccc(-c4ccc5ccccc5c4)c3)cc2)CCOCC1 [Example 629]	–
0.4	59.5	–	–	O=C(CCCc1ccc(S(=O)(=O)C2(C(=O)NO)CCOCC2)cc1)c1cccc(-c2ccccc2)c1 [Example 219]	IC50 (Human recombinant MMP-14; value outside parenthesis): > 10000 nM
–	–	–	–	O=C(NO)C1(S(=O)(=O)c2ccc(OCCc3cccc(-c4ccccn4)c3)cc2)CCOCC1 [Example 40]	IC50 (Human recombinant MMP-13; [1]): 0.5 nM; IC50 (Human recombinant MMP-14; [1]): > 10000 nM; Ki (Human recombinant MMP-9; [2]): 585 nM
–	–	–	–	O=C(NO)C1(S(=O)(=O)c2ccc(OCCCn3nnc(-c4ccc(OC(F)(F)F)cc4)n3)cc2)CCN(CC2CC2)CC1 [Example 53]	IC50 (Human recombinant MMP-13; [1]): 1 nM; IC50 (Human recombinant MMP-14; [1]): > 10000 nM; Ki (Human recombinant MMP-9; [2]): 2900 nM
11.8	44.5	–	–	COCCN1CCC(C(=O)NO)(S(=O)(=O)c2ccc(OCCCc3nc(-c4ccccc4OC(F)(F)F)no3)cc2)CC1 [Example 152]	IC50 (Human recombinant MMP-14; value outside parenthesis): > 10000 nM
1.4	2130	–	–	O=C(NO)C1(S(=O)(=O)c2ccc(OCCc3cccc(-c4ccc(F)cc4)c3)cc2)CCOCC1 [Example 123]	IC50 (Human recombinant MMP-14; value outside parenthesis): > 10000 nM
1.3	94.5	–	–	O=C(NO)C1(S(=O)(=O)c2ccc(OCCCc3cccc(-c4ccncc4)c3)cc2)CCOCC1 [Example 149]	–
9.7	172	–	–	CCc1ccccc1-c1noc(CCCOc2ccc(S(=O)(=O)C3(C(=O)NO)CCN(CCOC)CC3)cc2)n1 [Example 155]	IC50 (Human recombinant MMP-14; value outside parenthesis): > 10000 nM
–	–	117	6780	O=C(NO)C1(S(=O)(=O)c2ccc(OCCCc3cccc(-c4cc5ccccc5s4)c3)cc2)CCOCC1 [Example 633]	–
0.4	1390	–	–	O=C(NO)C1(S(=O)(=O)c2ccc(OCCCc3cccc(-c4ccc(F)cc4)c3)cc2)CCN(C2CC2)CC1 [Example 139]	IC50 (Human recombinant MMP-14; value outside parenthesis): > 10000 nM
–	–	–	–	COCCN1CCC(C(=O)NO)(S(=O)(=O)c2ccc(OCCCn3nnc(-c4ccc(OC(F)(F)F)cc4)n3)cc2)CC1 [Example 48]	IC50 (Human recombinant MMP-13; [1]): 0.2 nM; IC50 (Human recombinant MMP-14; [1]): > 10000 nM; Ki (Human recombinant MMP-9; [2]): 159 nM
–	–	0.2	739	O=C(NO)C1(S(=O)(=O)c2ccc(OCCCc3cncc(-c4ccccc4)c3)cc2)CCOCC1 [Example 524]	IC50 (Human recombinant MMP-14; value outside parentheses): > 10000 nM
–	–	1.1	132	O=C(COc1ccc(S(=O)(=O)C2(C(=O)NO)CCOCC2)cc1)c1cccc(-c2ccccc2)c1 [Example 563]	–
–	–	0.3	135	O=C(NO)C1(S(=O)(=O)c2ccc(OCCCc3cncc(Br)c3)cc2)CCOCC1 [Example 522]	–
–	–	20	4830	C=Cc1ccc(-c2cccc(CCCOc3ccc(S(=O)(=O)C4(C(=O)NO)CCOCC4)cc3)c2)cc1 [Example 635]	–

IC50 (Human recombinant MMP-13; value outside parenthesis) [nM]	Ki (Human recombinant MMP-9; value in parenthesis) [nM]	IC50 (Human recombinant MMP-13; value outside parentheses) [nM]	Ki (Human recombinant MMP-9; value in parentheses) [nM]	Compound	also measured
–	–	3.6	12.6	O=C(NO)C1(S(=O)(=O)c2ccc(OCCCc3nc(-c4ccccc4)no3)cc2)CCOCC1 [Example 584]	–
–	–	–	–	COCCN1CCC(C(=O)NO)(S(=O)(=O)c2ccc(OCCCc3cc(-c4ccc(F)cc4F)cs3)cc2)CC1 [Example 47, 4-[(4-{3-[4-(2,4-difluorophenyl)thien-2-l]propoxy}phenyl)sulfonyl]-N-hydroxy-1-(2-methoxyethyl)piperidine-4-carboxamide Hydrochloride]	IC50 (Human recombinant MMP-13; [1]): 0.2 nM; Ki (Human recombinant MMP-9; [2]): 119 nM and 309 nM
–	–	14.9	3150	O=C(NO)C1(S(=O)(=O)c2ccc(OCCCc3cccc(-c4ccc5c(c4)OCCO5)c3)cc2)CCOCC1 [Example 627]	–
505	> 10000	–	–	CC(C)c1ccc(-c2cccc(CCCOc3ccc(S(=O)(=O)C4(C(=O)NO)CCOCC4)cc3)c2)cc1 [Example 160]	–
–	–	400	8770	O=C(NO)C1(S(=O)(=O)c2ccc(OCCCc3cccc(-c4cccc5ccccc45)c3)cc2)CCOCC1 [Example 638]	–
–	–	3.2	763	O=C(NO)C1(S(=O)(=O)c2ccc(OCCCc3cccc(-c4ccccc4O)c3)cc2)CCOCC1 [Example 636]	–
15.6	3150	–	–	O=C(NO)C1(S(=O)(=O)c2ccc(OCCCc3cccc(-c4ccccc4Cl)c3)cc2)CCOCC1 [Example 162]	–
–	–	16.3	1300	O=C(NO)C1(S(=O)(=O)c2ccc(OCCCc3cccc(-c4coc5ccccc45)c3)cc2)CCOCC1 [Example 634]	–
–	–	–	–	NC(=O)c1cccc(OCCOc2ccc(S(=O)(=O)C3(C(=O)NO)CCOCC3)cc2)c1 [Example 54]	IC50 (Human recombinant MMP-13; [1]): 10.5 nM; Ki (Human recombinant MMP-9; [2]): 388 nM
–	–	4.3	688	Cc1ccc(-c2cccc(CCCOc3ccc(S(=O)(=O)C4(C(=O)NO)CCOCC4)cc3)c2)s1 [Example 639]	–
–	–	–	–	O=C(NO)C1(S(=O)(=O)c2ccc(OCCCc3cccc(-c4ccc(F)cc4)c3)cc2)CCOCC1 [Example 39]	IC50 (Human recombinant MMP-13; [1]): 0.9 nM; Ki (Human recombinant MMP-9; [2]): 2360 nM
7.5	310	–	–	O=C1Nc2ccc(-c3noc(CCCOc4ccc(S(=O)(=O)C5(C(=O)NO)CCN(C6CC6)CC5)cc4)n3)cc21 [Example 142]	–
–	–	0.7	83	O=C(NO)C1(S(=O)(=O)c2ccc(OCCCc3cccc(-n4ccnc4)c3)cc2)CCOCC1 [Example 574]	–
147	9750	–	–	Cc1ccc(-c2cccc(CCCOc3ccc(S(=O)(=O)C4(C(=O)NO)CCOCC4)cc3)c2)cc1C [Example 165]	–
–	–	0.2	6.15	O=C(CCCOc1ccc(S(=O)(=O)C2(C(=O)NO)CCOCC2)cc1)Nc1cccc(I)c1 [Example 570]	–
3.1	427	–	–	O=C(NO)C1(S(=O)(=O)c2ccc(OCCCc3cccc(-c4ccccn4)c3)cc2)CCOCC1 [Example 148]	–
–	–	2.9	578	O=C(NO)C1(S(=O)(=O)c2ccc(OCCCc3nc(-c4cccnc4)no3)cc2)CCOCC1 [Example 578]	–
–	–	33.6	4600	O=C(NO)C1(S(=O)(=O)c2ccc(OCCCc3cccc(-c4ccc(C(F)(F)F)cc4)c3)cc2)CCOCC1 [Example 625]	–
3.3	473	–	–	O=C(NO)C1(S(=O)(=O)c2ccc(OCCCc3cccc(-c4ccco4)c3)cc2)CCOCC1 [Example 97]	–
